Test results as given in patent US20020164620A1, “Method for identifying compounds modulating sister chromatid separation” (Boehringer Ingelheim International GmbH, priority 2001, published 2002).
“Also recorded” adds a separate entry of the source. No end group written: not given here. *: point of attachment. acyloxymethyl ketone = C-terminal acyloxymethyl ketone; Biotin = O=C1N[C@H]2[C@H](CS[C@H]2CCCCC(=O)*)N1

How the values were obtained:
human separase [1] = assay: SCC1 in vitro cleavage assay; assay type: biochemical
Experimental: 30 microliter beads were incubated with 40 μg bacterially expressed wildtype securin, destruction box deleted form of securin (Gmachl et al., 2000) or BSA diluted in XB+1 mM DTT for 40 min at RT. Subsequently the beads were washed with XB+1 mM DTT and with TBS+0.5 M NaCl+1 mM DTT+0.5% TWEEN20, followed by one wash with XB+1 mM DTT. To control the rebinding of securin an aliquot of 5 μl was taken per assay and subsequently analysed by immunoblotting with antibodies against separase and securin.
The beads were used for the SCC1 in vitro cleavage assay: 20 μl beads were mixed with 30 μl of the following SCC1 in vitro translation mix (SCC1 myc IVT+1 μl PLK-GST+0.3 μl […], 0.3 μl 100 mM ATP, 0.12 μl 250 mM EGTA, 13.78 μl XB+1 mM DTT) and incubated at 22° C. and 1200 rpm. 5 μl were taken per time point, the reaction was stopped by addition of SDS loading buffer. Samples were analyzed by immunoblotting with mouse monoclonal antibodies against myc (9E10).
(§1) B. Separase immunoprecipitates were incubated with 100 μM Biotin-SVEQGR-amk or with DMSO prior mitotic activation. Incubation for 10 minutes, 22° C. and 1000 rpm. After washing twice in XB+1 mM DTT the activation was performed in mitotic Xenopus egg extracts.
(§2) Interphase Xenopus egg extracts were driven into mitosis in the presence of 1 mM Biotin-SVEQGR-amk or DMSO. Those mitotic Xenopus egg extracts were used to activate a batch of separase immunoprecipitates.

human separase [2] = assay: Covalent labelling of separase forms by biotin peptide (avidin blot); assay type: binding
Experimental: as §1, §2
Biotin labeled peptides were detected via immunoblotting according to Faleiro et al., 1997.
C. Mitotically activated separase immunoprecipitates were preincubated with either 8 μg recombinant securin or with 8 μg of a C-terminal truncated version of cyclinB in 100 μl XB+1 mM DTT for 30 min at 22° C. and 1250 rpm. Subsequently the beads were washed twice with TBS+0.5 M NaCl+1 mM DTT+0.5% Tween 20 and twice with XB+1 mM DTT. Thereafter beads were incubated with 100 μl of 100 μM Bio-DREIMR-amk in XB+[…]. After 10 min incubation at 22° C. and 1250 rpm beads were again washed and analyzed by immunoblotting.
FIG. 4B: Separase IPs (see A) were either preincubated with Biotin-SVEQGR-amk (preinc. with inh. peptide) or with DMSO (preinc. with DMSO), subsequently washed and aliquots were taken. Thereafter they were incubated in mitotic Xenopus egg extracts and washed again. Samples were taken for analysis (1i, 1c). Separase IPs were activated either in mitotic Xenopus egg extracts which were driven into mitosis in the presence of Biotin-SVEQGR-amk or DMSO, subsequently washed and aliquots were taken for analysis (2i, 2c). Already mitotically activated separase IPs (see A) were incubated with Biotin-SVEQGR-amk or DMSO, thereafter washed and aliquots were taken for analysis (3i, 3c). All samples were analysed by immunoblotting with avidin.
FIG. 4D: Activated separase immunoprecipitates bound by antibodies against the C-terminus of separase to beads were first incubated with recombinant securin or, for control, with recombinant truncated cyclinB. […] Thereafter, the immunoprecipitates were again washed and analyzed by immunoblotting.

human separase [3] = molecular target: human separase (Homo sapiens, UniProt Q14674); conditions: same concentration at which SCC1 cleavage was inhibited
Experimental: A. Mitotically activated separase immunoprecipitates were preincubated with yeast peptides (Uhlmann et al., 2000) before they were used in the SCC1-cleavage assay. Biotin-SVEQGR-amk or Biotin-SVEQGR-cmk were used at different concentration (0.1, 1, 10, 100, 1000 μM in XB+0.5 mM DTT). Separase immunoprecipitates were incubated for 10 minutes, 22° C. and 1200 rpm. The SCC1 in vitro cleavage assay was performed after washing once with XB+0.5 mM DTT (see above). Human peptides, Biotin-DREIMR-amk or DREIMR-amk, were diluted and used as above described for the yeast peptides.

[4] = activation in mitotic Xenopus extracts in presence of peptide (lane 2i)
[5] = substance added to mitotically activated separase immunoprecipitates before SCC1-myc reaction mix

human separase, sequence (Q14674 1536-2120 limits assumed): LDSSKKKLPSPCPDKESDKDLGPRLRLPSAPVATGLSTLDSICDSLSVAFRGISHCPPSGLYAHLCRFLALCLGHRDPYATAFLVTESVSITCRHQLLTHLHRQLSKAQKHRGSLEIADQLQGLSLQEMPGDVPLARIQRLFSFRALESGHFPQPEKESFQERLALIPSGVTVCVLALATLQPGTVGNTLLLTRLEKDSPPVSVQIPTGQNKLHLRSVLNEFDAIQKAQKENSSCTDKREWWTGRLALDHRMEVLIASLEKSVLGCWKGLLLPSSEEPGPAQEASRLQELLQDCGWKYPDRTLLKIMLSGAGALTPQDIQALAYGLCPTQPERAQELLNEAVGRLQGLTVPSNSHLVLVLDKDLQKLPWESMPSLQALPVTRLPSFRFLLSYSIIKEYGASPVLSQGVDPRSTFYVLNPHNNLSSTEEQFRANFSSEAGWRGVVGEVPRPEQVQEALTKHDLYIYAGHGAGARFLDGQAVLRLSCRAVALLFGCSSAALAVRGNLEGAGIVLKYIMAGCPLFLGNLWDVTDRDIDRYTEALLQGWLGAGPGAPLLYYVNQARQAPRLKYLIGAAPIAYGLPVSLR
human separase (Homo sapiens, UniProt Q14674), sequence (Q14674 whole entry): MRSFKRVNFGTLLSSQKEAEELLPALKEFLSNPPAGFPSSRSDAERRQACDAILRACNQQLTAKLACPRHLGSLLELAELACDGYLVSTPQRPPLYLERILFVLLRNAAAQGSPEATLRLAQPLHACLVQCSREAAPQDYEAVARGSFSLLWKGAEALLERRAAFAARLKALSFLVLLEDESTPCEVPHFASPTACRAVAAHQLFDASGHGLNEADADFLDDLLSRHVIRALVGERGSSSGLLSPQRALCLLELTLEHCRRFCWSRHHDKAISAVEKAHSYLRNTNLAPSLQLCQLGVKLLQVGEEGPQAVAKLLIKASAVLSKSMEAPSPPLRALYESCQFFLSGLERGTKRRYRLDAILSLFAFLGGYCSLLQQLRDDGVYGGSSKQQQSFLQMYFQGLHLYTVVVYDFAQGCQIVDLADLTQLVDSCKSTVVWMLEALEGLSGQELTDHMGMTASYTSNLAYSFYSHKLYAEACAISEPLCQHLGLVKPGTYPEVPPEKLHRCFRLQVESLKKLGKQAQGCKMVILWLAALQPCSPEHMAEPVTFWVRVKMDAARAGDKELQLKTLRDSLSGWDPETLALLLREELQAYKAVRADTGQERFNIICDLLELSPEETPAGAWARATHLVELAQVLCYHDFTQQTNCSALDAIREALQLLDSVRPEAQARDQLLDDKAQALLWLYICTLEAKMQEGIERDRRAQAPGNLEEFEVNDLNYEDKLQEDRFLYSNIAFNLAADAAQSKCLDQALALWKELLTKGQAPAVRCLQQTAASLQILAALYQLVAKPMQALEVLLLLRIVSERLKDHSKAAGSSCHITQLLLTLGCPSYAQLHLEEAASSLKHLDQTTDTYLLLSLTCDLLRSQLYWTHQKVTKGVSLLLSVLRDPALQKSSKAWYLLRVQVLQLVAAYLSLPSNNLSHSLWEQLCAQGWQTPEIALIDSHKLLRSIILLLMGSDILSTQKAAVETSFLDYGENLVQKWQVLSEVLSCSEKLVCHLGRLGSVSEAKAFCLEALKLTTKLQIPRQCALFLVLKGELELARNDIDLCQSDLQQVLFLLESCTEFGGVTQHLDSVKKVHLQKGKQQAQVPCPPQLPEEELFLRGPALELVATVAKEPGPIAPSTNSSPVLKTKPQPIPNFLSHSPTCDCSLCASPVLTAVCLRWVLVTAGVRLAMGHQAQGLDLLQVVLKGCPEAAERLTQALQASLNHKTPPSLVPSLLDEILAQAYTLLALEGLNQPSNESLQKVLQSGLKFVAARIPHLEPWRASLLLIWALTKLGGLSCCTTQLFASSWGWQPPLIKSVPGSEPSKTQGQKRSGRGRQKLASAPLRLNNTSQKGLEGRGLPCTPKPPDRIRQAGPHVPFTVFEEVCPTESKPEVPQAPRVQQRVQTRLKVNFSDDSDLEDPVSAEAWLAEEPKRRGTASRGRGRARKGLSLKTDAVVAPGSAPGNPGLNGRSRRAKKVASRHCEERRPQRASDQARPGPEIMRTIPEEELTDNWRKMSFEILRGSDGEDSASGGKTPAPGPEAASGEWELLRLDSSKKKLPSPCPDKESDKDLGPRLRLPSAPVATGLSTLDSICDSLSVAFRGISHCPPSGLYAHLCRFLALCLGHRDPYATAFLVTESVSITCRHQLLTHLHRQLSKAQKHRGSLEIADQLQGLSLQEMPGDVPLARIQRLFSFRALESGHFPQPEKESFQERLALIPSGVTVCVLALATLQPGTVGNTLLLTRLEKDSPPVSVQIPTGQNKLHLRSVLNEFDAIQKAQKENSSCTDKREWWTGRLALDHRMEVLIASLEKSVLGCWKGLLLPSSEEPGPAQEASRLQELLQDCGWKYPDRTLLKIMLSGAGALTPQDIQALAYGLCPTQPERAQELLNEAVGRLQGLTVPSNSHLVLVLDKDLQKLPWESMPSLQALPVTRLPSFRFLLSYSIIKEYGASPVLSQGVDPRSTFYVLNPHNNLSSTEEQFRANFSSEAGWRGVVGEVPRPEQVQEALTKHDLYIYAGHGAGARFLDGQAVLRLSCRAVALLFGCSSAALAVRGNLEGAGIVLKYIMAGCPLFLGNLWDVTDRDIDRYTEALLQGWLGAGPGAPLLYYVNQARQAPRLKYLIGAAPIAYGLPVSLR

Row | Substance | relative effectiveness of the two yeast peptide inhibitors (human separase [1]) | SCC1 cleavage by separase (human separase [1]; [4]) | SCC1 cleavage by separase (human separase [1]; peptide added before activation and washed away before mitotic Xenopus extract (lane 1i)) | SCC1 cleavage by separase (human separase [1]; [5]) | separase forms labeled by the peptide (human separase [2]; [4]) | separase forms bound by the peptide (human separase [2]; peptide added after activation in mitotic Xenopus extracts (lane 3i)) | separase forms labeled by the peptide (human separase [2]; peptide added before activation in mitotic Xenopus extracts (lane 1i)) | formation of the p55 cleavage product of human separase (human separase [3])
1 | Bio-SVEQGR-amk: synthetic peptide with budding yeast SCC1 cleavage site SVEQGR, C-terminal acyloxymethyl ketone, N-terminal biotin (Biotin-SVEQGR-{acyloxymethyl ketone}) | the more effective one of the two yeast peptide inhibitors | separase was unable to cleave SCC1 | separase could be activated normally to cleave SCC1 | inhibited SCC1 cleavage by separase; also recorded: able to block the ability of separase to cleave SCC1 | both the cleaved forms of separase and full-length separase were covalently labeled | bound exclusively to the cleaved forms of human separase | only the small amount of p60 that is already present in these immunoprecipitates was labeled | largely inhibited
2 | DREIMR-amk: peptide inhibitor based on the cleavage recognition site of human SCC1, DREIMR, acyloxymethyl ketone (DREIMR-{acyloxymethyl ketone}) | – | – | – | able to inhibit separase at a similar concentration as the peptide inhibitors derived from yeast | – | – | – | –
